Results reported in patent US8071548B2, “Method of reducing injury to mammalian cells” (Nono, Inc., priority 2002, dated 2011).

Tests used:
[1] = tested on: transient middle cerebral artery occlusion; assay: Transient MCAO, post-treatment study (1 h after MCAO onset); type: in vivo, Sprague-Dawley rats; settings: 3 nMole/g i.v. 1 h after MCAO onset
Protocol: Next, I examined whether pretreatment with Tat-peptides would reduce stroke damage. Experiments were carried out in adult male Sprague-Dawley rats subjected to transient middle cerebral artery occlusion (MCAO) for 90 minutes by the intraluminal suture method (36,37). Animals were fasted overnight and injected with atropine sulfate (0.5 mg/kg IP). After 10 minutes anesthesia was induced with 3.5% halothane in a mixture of nitrous oxide and oxygen (Vol. 2:1) and maintained with 0.8% halothane. Rats were orally intubated, mechanically ventilated, and paralyzed with pancuronium bromide (0.6 mg/kg IV). Body temperature was maintained at 36.5-37.5° C. with a heating lamp. Polyethylene catheters in the femoral artery and vein were used to continuously record blood pressure and to sample blood for gas and pH measurements. […] This produces an extensive infarction encompassing the cerebral cortex and basal ganglia. […] Physiological parameters (body temperature, blood pressure, blood gases) were monitored and maintained throughout the experiment (Table 1). All experimental manipulations and analyses of data were performed by individuals blinded to the treatment groups. The extent of cerebral infarction was measured 24 h after MCAO onset (FIG. 7C inset). The postural reflex test (38), and the forelimb placing test (39) were used to grade neurological function on a scale of 0 to 12 (normal=0; worst=12) during MCAO (at 50 minutes) and 24 h thereafter.
Next, I examined whether treatment with Tat-NR2B9c could attenuate ischemic neuronal damage in-vivo when given after stroke onset. […] Infarction volume and neurological outcome measurements were performed at times identical to the pre-treatment study. Body temperature, blood pressure and blood gases were monitored throughout the 24 h experiment and maintained equivalent between groups (Table 2).

CA1 neurons = assay: Electrophysiological recordings in acute hippocampal slices (CA1 neurons); parameters: species or system rat; settings: 50 nM bath-applied
Protocol: Electrophysiological Recordings were made in […] hippocampal slices from 20-36 day old Sprague-Dawley rats perfused at room temperature with ACSF containing (in mM) 126 NaCl, 3 KCl, 2 MgCl2, 2 CaCl2, 1.2 KH2PO4, 26 NaHCO3 and 10 glucose and bubbled with 95% O2/5% CO2. Whole-cell recordings of CA1 neurons were performed using the “blind” method with an Axopatch-1D amplifier (Axon Instruments, Foster City, Calif.) at holding potential −60 mV. Pipettes (4-5 MΩ) were filled with solution containing (mM): 135 CsCl, 2 MgCl2, 0.1 CaCl2, 0.5 EGTA, 10 HEPES, 4 Mg-ATP, 0.2 GTP, and 5 QX-314, pH 7.4, 310 mOsm. Field potentials were recorded with glass micropipettes (2-4 MΩ) filled with ACSF placed in the stratum radiatum […] from the cell body layer. Synaptic responses were evoked by stimulation (0.05 ms) of the Schaffer collateral-commissural pathway with a bipolar tungsten electrode in the presence of bicuculline methiodide (10 μM). For INMDA recording, Mg^2+ was removed from and 20 μM CNQX was added in ACSF. Following 10-20 min base line recordings of EPSCs, INMDA and fEPSPs, Tat-peptides were applied in ACSF and recordings were continued for 30 min thereafter.

nNOS = assay: NMDA-evoked cGMP formation (surrogate of NO production by nNOS); type: cell-based, mouse; settings: 50 nM, pre-treated 1 h, NMDA 0-1000 μM
Protocol: cGMP determinations were performed 10 min after challenging the cultures with NMDA, kainate, or high-K (FIGS. 4c-e) with the Biotrak cGMP enzyme immunoassay system according to the kit manufacturer's instructions (Amersham). Staining for NADPH diaphorase (FIG. 4b) was done as described in ref 12.

[2] = tested on: transient unilateral middle cerebral artery occlusion

Tat-KLSSIESDV [Tat-NR2B9c]
24 h neurological scores [1]: significant improvement
reduction in cortical infarction volume ([1]; 24 h): 86.97±4.38%
reduction of volume of total cerebral infarction ([1]; 24 h, vs controls): 67.0±3.75%
synaptic responses, total EPSC and AMPA or NMDA components of the EPSC in CA1 neurons (CA1 neurons): had no effect
suppression of NMDA-evoked increase in cGMP (average) (nNOS): 39.5±6.7%
return to pre-surgery weight for 2 consecutive days, earlier than saline or NR2B-AA treated rats ([2]; 3 nmoles/g i.v. 3 hours after onset of ischemia): about 1 week
Mean latency to retreat from the open to the closed arm in the elevated plus maze ([2]; 6 days following MCA occlusion): significant difference from Tat-NR2B-AA
Mean (SE) core temperature during surgery ([2]; MCAO 90 min): 37.1 (∀0.1)
Mean (SE) core temperature subsequent to surgery ([2]; MCAO 90 min): 37.9 (∀0.2)
Mean (SE) systolic blood pressure during surgery ([2]; MCAO 90 min): 112 (∀6.3)
Mean (SE) systolic blood pressure prior to surgery ([2]; MCAO 90 min): 106 (∀4.3)
Mean (SE) systolic blood pressure subsequent to surgery ([2]; MCAO 90 min): 122 (∀5.5)
Mean (SE) core temperature prior to surgery ([2]; MCAO 90 min, drug i.v. 3 hours after onset of ischemia): 36.7 (∀0.2)
individual weight post-surgery versus controls ([2]; a number of days including day 56 post-injury): significantly heavier
Morris water maze acquisition phase ([2]; approximately 2 months post-injury): No significant group differences
Morris water maze memory (time in the target quadrant) ([2]; approximately 2 months post-injury, vs combined control): significantly reduced memory deficits
Barnes maze escape latencies, acquisition phase ([2]; days 36-45): consistently shorter mean escape latencies
Barnes maze retest (memory) ([2]; days 36-45, relative to controls): performed significantly better
Habituation score for grid crosses in the open field arena ([2]; difference between day 5 and day 15): significant difference from Tat-NR2B-AA and Saline
latency in horizontal ladder task ([2]; post-surgery days 5, 9 and 14): significantly reduced latencies
number of paw slips in horizontal ladder task ([2]; post-surgery days 5, 9 and 14): significantly fewer paw slips
total infarct area and volume at 62 days post-surgery ([2]; relative to TAT-NR2B-AA and saline): reduced total infarct area and volume
Mean sensory-motor score over 56 days post-MCAO ([2]; treated at 3 hours post-MCAO): significant long-term functional neuroprotection
